Source: paper PMC5688144, “Assay interference and off-target liabilities of reported histone acetyltransferase inhibitors” (Nature Communications, 2017)

Key:
[1] = Fluorescence quenching counter-screen; assay type: physicochemical; settings: 10 μM fluorophore; 32 nM-100 μM compound
Method: Selected test compounds were assessed for fluorescence quenching using adaptions of previously published procedures[9],[24]. Briefly, test compounds and individual fluorophore standards were incubated together. The fluorescence intensity of these mixtures was compared to the fluorescence intensity of the same fluorophore standards minus test compounds. Each microplate contained positive control columns (DMSO plus fixed concentration of a single fluorophore), negative control columns (DMSO), and experimental wells (test compounds plus fixed concentration of a single fluorophore). […] Final concentration of DMSO was constant at 2.0% (v/v). […] All measurements were performed in ALARM NMR buffer (25 mM sodium phosphate, pH 7.0) at 25 °C. Aliquots of 20 μL buffer were dispensed into microplate wells via ThermoFisher Multidrop dispenser. Microplates were shaken for 1 min on a plate shaker, centrifuged briefly for 1 min at 1000×g, then allowed to incubate at RT for 10 min before measuring fluorescence intensity on a SpectraMax M3 plate reader under reduced lighting. Instrument settings for each fluorophore were unchanged from the aforementioned autofluorescence studies.

human La antigen = molecular target: T1, human La antigen (Homo sapiens, UniProt P05455, T302N); experiment: ALARM NMR; assay type: binding; settings: 400 μM compound; for ALARM NMR, (-) DTT: 0 mM DTT; for ALARM NMR, (+) DTT: DTT present; for ALARM NMR interpretation: with and without DTT
T1 construct: amino acids 100–324 of the human La antigen (plus T302N mutation); 6xHis (N); 6xHis (C); host or cells: Escherichia coli Rosetta cells
T1 sequence (P05455 100-324 T302N): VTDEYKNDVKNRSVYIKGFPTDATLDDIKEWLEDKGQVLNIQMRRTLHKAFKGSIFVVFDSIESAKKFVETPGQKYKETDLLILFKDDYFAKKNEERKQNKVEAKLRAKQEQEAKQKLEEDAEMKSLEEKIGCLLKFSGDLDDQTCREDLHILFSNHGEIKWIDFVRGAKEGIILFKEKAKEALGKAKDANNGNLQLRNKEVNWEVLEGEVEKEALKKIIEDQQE
From the text: The gene encoding amino acids 100–324 of the human La antigen (plus T302N mutation) was cloned into pET28b + vector (Novagen) with both an N- and C-terminal 6xHis tag (addgene.org, plasmid ID 90209). The sequence identity of the ALARM NMR plasmid construct was verified by Sanger sequencing of the transgene region and next-generation sequencing of the whole plasmid.
Plasmid was transformed into Escherichia coli Rosetta cells (Novagen) and cultured in M9 minimal media. The La antigen was labeled by adding ^13C-labeled amino acid precursors ([3-^13C]-α-ketobutyrate and [3,3′-^13C]-α-ketoisovalerate sodium salts; Cambridge Isotope Laboratories; 250 mg L^−1 final concentrations) to culture medium 30 min before induction with IPTG (1 mM final concentration). Bacteria were collected after incubation at 25 °C for 8 h and washed with ice-cold phosphate-buffered saline (PBS). Washed cells were lysed by French press in ice-cold lysis buffer (50 mM Tris, pH 7.6, 300 mM NaCl, 10% glycerol (v/v), 5 mM β-mercaptoethanol (BME), 5 mM imidazole, 2 mM MgCl2, benzonase, and protease inhibitor cocktail), followed by an additional brief sonication step (3 × 15 s pulse sequence) on ice. This lysed solution was centrifuged (30,000×g for 30 min, two cycles) to remove cellular debris, then loaded onto a pre-washed Ni-NTA bead column (Qiagen) kept at 4 °C and washed with buffer (50 mM Tris, pH 7.6, 300 mM NaCl, 10% glycerol (v/v), 5 mM BME, 5 mM imidazole). The La antigen was eluted with an elution buffer (50 mM Tris, pH 7.6, 300 mM NaCl, 10% glycerol (v/v), 5 mM BME, imidazole gradient ranging from 5 mM to 0.5 M). […] Aliquots were flash-frozen in liquid N2 and stored at −80 °C until further use. Before use, aliquots of ~150 μM protein were incubated in the presence of 20 mM DTT at 37 °C for 1 h, then dialyzed (25 mM sodium phosphate buffer, pH 7.0 (no DTT)) in 16 h cycles at 4 °C with constant nitrogen bubbling and with gentle stirring, for three total buffer cycles.
For standard testing conditions, the [^1H-^13C]-HMQC spectra were acquired in 25 mM sodium phosphate buffer, pH 7.0, 10% D2O (v/v; CIL) ± 400 μM test compounds delivered from the aforementioned stock solutions, and ± 20 mM non-deuterated DTT. Final concentration of DMSO was 4.0% (v/v). Reaction solutions were mixed, then centrifuged for 5 min (1000×g) in non-binding 384-well microplates at RT, then incubated at 37 °C for 1 h and then 30 °C for 15 h before obtaining spectra. Samples were checked for evidence of gross precipitation. Data were recorded at 298 K on a Bruker UltraShield 700 MHz NMR spectrometer equipped with a Bruker 1.7 mm TCI Cryoprobe and Bruker SampleJet autosampler. Samples were tested at 50 μM protein concentrations using 16 scans, 2048 complex points in F2, and 80 points in F1 using standard protein [^1H-^13C]-HMQC and water suppression pulse sequences.
Data were analyzed in TopSpin™ 3.5 (Bruker). Reactions were normalized to equivalent DMSO controls. Non-reactive compounds were identified by the absence of chemical shifts or changes in peak intensities (^13C-methyl) ± 20 mM DTT.

AmpC β-lactamase = molecular target: T2, AmpC β-lactamase (Escherichia coli, UniProt P00811); experiment: biochemical; set-up: species or system E. coli; settings: for AmpC counter-screen result / AmpC aggregation counter-screen: 10 μM compound; for AmpC counter-screen result: detergent-sensitive modulation; for AmpC aggregation counter-screen: ± 0.01% Triton X-100
T2 construct: Recombinant E. coli AmpC (amino acids 20–377); purchased MyBioSource.com
Method: Selected compounds were assessed for aggregation using a modified AmpC β-lactamase counter-screen[24],[32],[64]. Recombinant E. coli AmpC (amino acids 20–377) was obtained from MyBioSource.com. Testing was performed in ALARM NMR buffer (25 mM sodium phosphate, pH 7.0) in flat-bottom UV-transparent 96-well microplates in 150 μL reaction volumes. Compounds were tested in triplicate at 10 μM final concentrations in either the presence or absence of freshly-prepared 0.01% Triton X-100 (v/v). Final concentration of DMSO was 2.0% (v/v). Compounds were incubated with ~5 nM AmpC in 147 μL reaction buffer for 5 min at RT, followed by the addition of 3 μL of nitrocefin substrate (100 μM final concentration). Reaction solutions were gently mixed by pipetting up and down three times using a multichannel pipette. […] Percent activity was normalized to DMSO-only controls. Fluconazole and lidocaine were included as negative aggregation control compounds. Rottlerin was included as a positive aggregation control compound. Aggregators were defined as compounds with significant detergent-dependent changes in AmpC activity (t-test, adjusted P-value <0.05; mean differences greater than 30%). Activators were defined as compounds that increased AmpC enzymatic activity.

Structure (SMILES) | Quenching counter-screen [1] | ALARM NMR, (-) DTT (human La antigen) | ALARM NMR, (+) DTT (human La antigen) | ALARM NMR interpretation (human La antigen) | AmpC counter-screen result (AmpC β-lactamase) | AmpC aggregation counter-screen (AmpC β-lactamase) | inhibition at 10 µM (AmpC β-lactamase; read-out: % Inhibition, AmpC) [%] | ALARM NMR readout (human La antigen; overall readout)
CC1=NN(c2ccc(C(=O)O)cc2)C(=O)/C1=C/c1ccc(-c2cc(C)c(C)cc2[N+](=O)[O-])o1 [Compound 1, C646] | Flagged (Significant fluorescence quenching was defined as signal reduction greater than 25% of the corresponding fluorophore signal at any test compound concentration) | positive | Negative | Thiol-reactive | likely aggregators | Detergent-sensitive (activator) | -58 ± 56 | –
O=c1c2cccnc2sn1Cc1ccc(C(F)(F)F)cc1 [Compound 3, PU141] | Negative | Positive | Negative | Thiol-reactive | – | Detergent-insensitive | – | –
Cc1cc(O)cc(C)c1C=C1C(=O)N(Cc2ccccc2)C(=O)N(Cc2ccccc2)C1=O [Compound 4, EML425] | Flagged (Significant fluorescence quenching was defined as signal reduction greater than 25% of the corresponding fluorophore signal at any test compound concentration) | Positive | Negative | Thiol-reactive | likely aggregators | Detergent-sensitive (Aggregators were defined as compounds with significant detergent-dependent changes in AmpC activity (t-test, adjusted P-value <0.05; mean differences greater than 30%)) | – | positive
COc1ccc(S(=O)(=O)ON=C2C=C(C)C(=O)C(C)=C2)cc1 [Compound 5, L002] | Negative | Positive | Negative | Thiol-reactive | – | Detergent-insensitive | – | –
C=C1C(=O)O[C@H](CCC)[C@H]1C(=O)O [Compound 6, MB-3] | Flagged (Significant fluorescence quenching was defined as signal reduction greater than 25% of the corresponding fluorophore signal at any test compound concentration) | Positive | Negative | Thiol-reactive | – | Detergent-insensitive | – | –
Clc1ccc(-c2csc(NN=C3CCCC3)n2)cc1 [Compound 7, CPTH2] | Flagged (Significant fluorescence quenching was defined as signal reduction greater than 25% of the corresponding fluorophore signal at any test compound concentration) | Positive | Negative | Thiol-reactive | likely aggregators | Detergent-sensitive (Aggregators were defined as compounds with significant detergent-dependent changes in AmpC activity (t-test, adjusted P-value <0.05; mean differences greater than 30%)) | – | –
CCCCCCCCCCCC1=C(O)C(=O)C=C(O)C1=O [Compound 9, Embelin] | Flagged (Significant fluorescence quenching was defined as signal reduction greater than 25% of the corresponding fluorophore signal at any test compound concentration) | Positive | Positive | Thiol-reactive, nonspecific perturbation | – | Detergent-sensitive (Aggregators were defined as compounds with significant detergent-dependent changes in AmpC activity (t-test, adjusted P-value <0.05; mean differences greater than 30%)) | – | –
O=C(O[C@@H]1Cc2c(O)cc(O)cc2O[C@@H]1c1cc(O)c(O)c(O)c1)c1cc(O)c(O)c(O)c1 [Compound 10, (-)-Epigallocatechin gallate] | Flagged (Significant fluorescence quenching was defined as signal reduction greater than 25% of the corresponding fluorophore signal at any test compound concentration) | Positive | Negative | Thiol-reactive | – | Detergent-insensitive | – | –
COc1cc(/C=C/C(=O)CC(=O)/C=C/c2ccc(O)c(OC)c2)ccc1O [Compound 11, Curcumin] | Flagged (Significant fluorescence quenching was defined as signal reduction greater than 25% of the corresponding fluorophore signal at any test compound concentration) | Partial | Negative | Equivocal | – | Detergent-sensitive (Aggregators were defined as compounds with significant detergent-dependent changes in AmpC activity (t-test, adjusted P-value <0.05; mean differences greater than 30%)) | – | –
O=C1/C(=C/c2ccc(O)c(Br)c2)CCC/C1=C\c1ccc(O)c(Br)c1 [Compound 12, HAT inhibitor II] | Flagged (Significant fluorescence quenching was defined as signal reduction greater than 25% of the corresponding fluorophore signal at any test compound concentration) | Partial | Negative | Equivocal | – | Detergent-sensitive (Aggregators were defined as compounds with significant detergent-dependent changes in AmpC activity (t-test, adjusted P-value <0.05; mean differences greater than 30%)) | – | –
